Source: patent publication US10392422B2, “Macrocyclic broad spectrum antibiotics” (priority 2014, dated 2019)

How the values were obtained:
[1] = tested on: Escherichia coli MC4100 harboring the IMP4213; experiment: MIC, broth micro-dilution technique (CLSI); type: cell-based; conditions: Table 1 protocol: serial 2-fold dilutions starting from 64 μg/ml; 35° C., 22 hours
Summary of the method: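 CLSI broth microdilution in cation-adjusted Mueller Hinton broth with 0.002% v/v Tween-80. Compounds were serially 2-fold diluted over 10 concentrations from 64 μg/ml, or from 4 μg/mL in a modified protocol; inoculum at final OD600 0.0005, incubated 35° C for 22 hours.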

[2] = tested on: Methicillin Resistant Staphylococcus aureus strain USA 300 (NRS384); experiment: MIC, broth micro-dilution technique (CLSI); type: cell-based; conditions: Table 1 protocol: serial 2-fold dilutions starting from 64 μg/ml; 35° C., 22 hours
Summary of the method: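 Cation-adjusted MHB + 0.002% Tween-80; 10-point 2-fold series starting 64 μg/ml (modified protocol: 4 μg/mL). Final inoculum OD600 0.0005; 35° C, 22 h. MIC per CLSI M07-A8 broth microdilution.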

[3] = tested on: MRSA strain USA300; experiment: Checkerboard synergy assay (2D MIC) with imipenem; type: cell-based, Staphylococcus aureus; conditions: many points of the isobologram (FIG. 1); synergy defined as sum of the FICs ≤0.5; 35° C., 22 hours
Procedure: 2D MIC assay or “checkerboard assays” are the most common method used to quantify synergistic or antagonistic interactions between two antibiotics with respect to potency (Hallander, H. O., et al., Antimicrob. Agents Chemother. 1982 22:743-752). In this assay in each axis of a 96-well plate contains a 2-fold dilution of a given agent, such that each well contains a unique combination of the agents being tested.
To create a checkerboard dilution scheme, imipenem was diluted in Mueller Hinton II Broth+0.002% Tween-80 to twice the final desired concentration, and six 2-fold serial dilutions were performed in the same media yielding seven imipenem concentrations. Dilutions of Compound 155 were prepared similarly except that ten dilutions were performed for a total of eleven concentrations. […]
MRSA strain USA300 was grown overnight at 35° C. on Mueller Hinton Agar plates, and colonies were suspended in Mueller Hinton II Broth+0.002% Tween-80 to a final density of 1*10^7 cfu/ml. […] The plate was incubated at 35° C. for 22 hours after which growth was determined via visual inspection. For each sub-MIC concentration of imipenem, the concentration of Compound 155 required to prevent visible growth was recorded, and the fractional inhibitor concentration (FIC) of each agent was calculated by dividing the concentration of each agent by MIC of the agent alone. […]

In the case of CCCCCCCCCCNCCC(=O)N[C@@H](CCCCN)C(=O)N(C)[C@@H]1C(=O)N[C@@H](C)C(=O)N[C@H](C(=O)N[C@@H](C)C(=O)N2CCC[C@H]2C(N)=O)Cc2ccc(O)c(c2)-c2cc1ccc2O.O=CO [Compound 155], the “MIC (μg/mL) E. coli” value [1] is reported as 64 µg/mL, the “MIC (μg/mL) S. aureus” value [2] is reported as 2.8 µg/mL and the “sum of the FICs (fractional inhibitor concentration) of Compound 155 and imipenem” value [3] is reported as less than 0.5.
